These results are taken from PMC9595134, “Novel pituitary actions of GnRH in teleost: The link between reproduction and feeding regulation” (Frontiers in Endocrinology, 2022).

Assay [1] relates to grass carp pituitary cells. Briefly: qRT-PCR of reproductive hormone genes in pituitary cells. Format: cell-based, grass carp (Ctenopharyngodon idellus). How it is done:
(§1) The preparation of grass carp pituitary cells was performed as mentioned above. After drug treatment, the total RNA of these cells was isolated by TRIzol reagent and reverse transcribed into cDNA with Hifair™ III 1st Strand cDNA Synthesis Kit. The transcript levels of several anorectic peptides (POMCb, CART2, UTS1, NMBa, NMBb, and Lepr) and reproductive genes (GtHα, LHβ, FSHβ, INHBa, SgII, DRD2) were detected by using an ABI 7500 quantitative real-time PCR (qRT-PCR) system (Biosystems, USA) (information of primers for target genes is listed in Supplementary Table S3 ). In this process, a serial gradient dilution of plasmid DNA of these genes was used as a standard for data calibration. The conditions of qRT-PCR were set to 10 min, 95°C, for pre-degeneration; 15 s, 95°C, for degeneration; 30 s, 55°C–60°C, for annealing; 30 s, 72°C, for extending; and 20 s, 82°C, for signal detection with 40 cycles. Finally, the melt curve obtained through each test was used to verify and check the reliability and specificity of the corresponding qRT-PCR.
(§2) The transcript level was detected using qRT-PCR by ABI 7500 software, while the data calibration of each reaction was performed through standard curves with the dynamic range of 10^5 and correlation coefficient >0.95. The transcript level of β-actin was used as an internal control, and target gene mRNA expression was normalized and calculated as a percentage of the mean value (as “% Ctrl”). Based on merging four to eight replicates (as mean ± SEM), the data were analyzed with a one-way ANOVA to differentiate the significant differences from other treatment experiments. The SPSS Statistics 26.0 software was used to do a Dunnett’s post-hoc test. […] The different letters represent a significant difference at p < 0.05 between groups.
To further verify the reproductive function of GnRHs, time- and dose-dependent tests were performed to detect GnRH2- or GnRH3-regulated GtHα, LHβ, FSHβ, INHBa, SgII, and DRD2 mRNA expression in grass carp pituitary cells. […] In the dose-dependent test, a continuous gradient dilution of GnRH2 (0.1–1,000 nM) or GnRH3 (0.1–1,000 nM) was incubated with grass carp pituitary cells for 24 h.
Figure 5 Regulation of reproductive hormone gene mRNA expression by GnRH2 and GnRH3 in grass carp pituitary cells. (A) Time-course experiment of grass carp GnRH2 (1 μM) and GnRH3 (1 μM) on GtHα, LHβ, FSHβ, INHBa, SgII, and DRD2 mRNA expression in grass carp pituitary cells. (B) Dose dependence of a 24-h treatment with increasing levels of GnRH2 and GnRH3 (0.1–1,000 nM) on GtHα, LHβ, FSHβ, INHBa, SgII, and DRD2 mRNA expression in grass carp pituitary cells. After drug treatment, the pituitary cells were extracted to total RNA, reversed transcribed, and used for RT-PCR to detect the target genes’ mRNA expression. […] The different letters represent a significant difference at p < 0.05 between groups (ANOVA followed by a Dunnett test).

The subject of assay [2] is grass carp pituitary cells. Briefly: qRT-PCR of anorectic genes in pituitary cells. Format: cell-based, grass carp (Ctenopharyngodon idellus). The procedure: as §1, §2
To further verify the functional role of GnRH2 and GnRH3 on feeding regulation, time- and dose-dependent tests were performed to detect the effect of GnRH2 and GnRH3 on anorectic gene (POMCb, CART2, UTS1, NMBa, NMBb, and LEPR) mRNA expression. In the time-course test, the grass carp pituitary cells were incubated by GnRH2 or GnRH3 (1 μM) for 3, 6, 12, and 24 h, respectively. […] In the dose-dependent test, grass carp pituitary cells were incubated by the continuous gradient dilution of GnRH2 or GnRH3 (0.1–1,000 nM) for 24 h.
Figure 9 Regulation of feeding hormone gene mRNA expression by GnRH2 and GnRH3 in grass carp pituitary cells. (A) Time-course experiment of grass carp GnRH2 (1 μM) and GnRH3 (1 μM) on POMCb, CART2, UTS1, NMBa, NMBb, and LEPR mRNA expression in grass carp pituitary cells. (B) Dose dependence of a 24-h treatment with increasing levels of GnRH2 and GnRH3 (0.1–1,000 nM) on POMCb, CART2, UTS1, NMBa, NMBb, and LEPR mRNA expression in grass carp pituitary cells. […]

Another assay has as its system zebrafish. Conditions: intracerebroventricular (ICV) injection, ref [38]; cited from earlier work.
The subject of assay [3] is goldfish. The following applies: intracerebroventricular (ICV) injection, ref [39]; cited from earlier work.
For assay [4], the system named is goldfish. On the set-up: method as in PMID 7507838, PMID 8045371. Conditions: ref [34], [35], cited from earlier work.
The subject of another assay is pituitary. The following applies: teleost; ref [5], [10]; cited from earlier work. An excerpt:
Subsequently, GnRH2 had been firstly found in chicken so that this variant was also named as chicken GnRH (cGnRH) ([3]). In addition, the third GnRH variant (GnRH3) was an ubiquitous and unique subtype existing in fish ([3]), which was primitively discovered in salmon so that it was named as salmon GnRH (sGnRH) ([4]). Multiple GnRH variants (two or three forms) are present in all teleosts ([5]), but the receptor selectivity a ...

The mark [5] stands for this setting: 1 μM, time-dependent, Figure 5A.

Where a SMILES comes first, the peptide text is derived from it. [ ]: non-standard residue; d: D form. pGlu = O=C1CC[C@@H](C(=O)O)N1

As for `NC(=O)CNC(=O)[C@@H]1CCCN1C(=O)[C@H](Cc1ccc(O)cc1)NC(=O)[C@H](Cc1c[nH]c2ccccc12)NC(=O)CNC(=O)[C@H](Cc1c[nH]cn1)NC(=O)[C@H](CO)NC(=O)[C@H](Cc1c[nH]c2ccccc12)NC(=O)[C@H](Cc1c[nH]cn1)NC(=O)[C@@H]1CCC(=O)N1` [GnRH2] ([pGlu]HWSHGWYPG-NH2), in assay [1] (setting [5]), the “effect on DRD2 mRNA expression, time course” value is recorded as “inhibit”; the “effect on GtHα, LHβ, FSHβ, INHBa, and SgII mRNA expression, time course” value is “significantly induce”. Besides, in assay [1] (0.1–1,000 nM (all treated doses), 24 h, Figure 5B), the “effect on DRD2 mRNA expression, dose test” value is “significantly inhibit”. Further, in assay [1] (0.1–1,000 nM, 24 h, dose-dependent, Figure 5B), the “effect on GtHα, LHβ, FSHβ, INHBa, and SgII mRNA expression, dose dependence” value is on record as “significantly induce”. Besides, in assay [2] (1 μM, 3, 6, 12, and 24 h, time-dependent, Figure 9A), the “effect on POMCb, CART2, UTS1, NMBa, NMBb, and LEPR mRNA expression, time course” value was “significantly induce”. For the same molecule, the “effect on POMCb, CART2, UTS1, NMBa, NMBb, and LEPR mRNA expression, dose dependence” value in assay [2] (0.1–1,000 nM, 24 h, dose-dependent, Figure 9B) is given as “significantly induce”. For the same molecule, the “effect on food intake, zebrafish” value with zebrafish is “significantly decrease food intake”. The “effect on food intake, goldfish” value with goldfish [3] is on record as “significantly decrease food intake”. Also, the “LH secretion compared to GnRH3” value in the assay with goldfish [4] (sexually mature, pre-spawning fish) was “more robust LH secretion”. Further, the LH-releasing activity entry in the assay with goldfish [4] (sexually regressed animals) is on record as “no effect”. In addition, the “effect on LH and FSH secretion in the pituitary” value in the assay on pituitary was “could stimulate”.
